Among the data in patent US9120804B2, “8-substituted 2-amino-[1,2,4] triazolo [1, 5-A] pyrazines as Syk tryrosine kinase inhibitors and GCN2 serin kinase inhibitors” (Merck Patent GmbH, priority 2012, dated 2015) are IC50 values, retold here.

pIC50: −log10 of the molar value.

This assay deals with T1, SYK (Homo sapiens, UniProt P43405).
T1 construct: 2.5 nM SYK, 400 nM Biotin-Aha-Aha-KEDPDYEWPSAKK
Put plainly: SYK flash plate assay (enzyme assay). Format: biochemical. As to the method:
The kinase assay is performed either as 384-well Flashplate assay (for e.g. Topcount measurement) or as 384-well Image-Flashplate assay (for LEADseeker measurement).
2.5 nM SYK, 400 nM Biotin-Aha-Aha-KEDPDYEWPSAKK
and 10 μM ATP (spiked with 0.3 μCi 33P-ATP/well) are incubated in a total volume of 50 μl (60 mM Hepes, 10 mM MgCl2, 1.2 mM Dithiothreitol, 0.02% Brij35, 0.1% BSA, pH 7.5) with or without test compound for 1 hours at 30° C. The reaction is stopped with 25 μl 200 mM EDTA. After 30 Min at 30° C. the liquid is removed and each well washed thrice with 100 μl 0.9% sodium chloride solution. Non-specific reaction is determined in presence of […] Staurosporine. Radioactivity is measured with Topcount (when using Flashplates) or with LEADseeker (when using Image-Flashplates) respectively. Results (e.g. IC50-values) are calculated with program tools provided by the IT-department (e.g. Symyx Assay Explorer, Genedata Screener). In Vivo Assays CIA
The pIC50 is the IC50 on a negative log10 scale, so that one unit is a factor of ten. In the case of `CC1(C)C(=O)Nc2cc(Nc3nc4c(N[C@H]5CC[C@@H](O)CC5)nccn4n3)ccc21` [C75, cis-6-[8-(4-hydroxy-cyclohexylamino)-[1,2,4]triazolo[1,5-a]pyrazin-2-ylamino]-3,3-dimethyl-1,3-dihydro-indol-2-one], the pIC50 is above 7.00.
In turn, `CC1(C)C(=O)Nc2cc(Nc3nc4c(N5CC[C@@]6(CC(=O)NC6=O)C5)nccn4n3)ccc21` [E16, (R)-7-[2-(3,3-dimethyl-2-oxo-2,3-dihydro-1H-indol-6-ylamino)-[1,2,4]triazolo[1,5-a]pyrazin-8-yl]-2,7-diaza-spiro[4.4]nonane-1,3-dione] had a pIC50 above 7.00.
Compound `c1ccc(-c2ccccc2-c2nccn3nc(Nc4ccc5cn[nH]c5c4)nc23)cc1` [C11, (8-Biphenyl-2-yl-[1,2,4]triazolo[1,5-a]pyrazin-2-yl)-(1H-indazol-6-yl)-amine] gave a pIC50 of 5.52 to 6.52.
Consider `CN(C)c1ccc2c(c1)N(c1nccn3nc(Nc4ccc5c(c4)NC(=O)C5(C)C)nc13)CC2` [E119, 6-[8-(6-dimethylamino-2,3-dihydro-indol-1-yl)-[1,2,4]triazolo[1,5-a]pyrazin-2-ylamino]-3,3-dimethyl-1,3-dihydro-indol-2-one], for which the pIC50 was 6.52 to 7.00.
Then `CC1(C)C(=O)Nc2cc(Nc3nc4c(Nc5n[nH]c(C(F)(F)F)n5)nccn4n3)ccc21` [E60, 3,3-dimethyl-6-[8-(5-trifluoromethyl-1H-[1,2,4]triazol-3-ylamino)-[1,2,4]triazolo[1,5-a]pyrazin-2-ylamino]-1,3-dihydro-indol-2-one], with 5.52 to 6.52; and `CC1(C)C(=O)Nc2cc(Nc3nc4c(N5CCCC5)nccn4n3)ccc21` [E41, 3,3-dimethyl-6-(8-pyrrolidin-1-yl-[1,2,4]triazolo[1,5-a]pyrazin-2-ylamino)-1,3-dihydro-indol-2-one], with above 7.00; and `CC1(C)C(=O)Nc2cc(Nc3nc4c(N5CCC6(CN[C@H](C(F)(F)F)C6)C5)nccn4n3)ccc21` (stereo partly drawn) [E153, 3,3-dimethyl-6-[8-((S)-8-trifluoromethyl-2,7-diaza-spiro[4.4]non-2-yl)-[1,2,4]triazolo[1,5-a]pyrazin-2-ylamino]-1,3-dihydro-indol-2-one], with above 7.00.
On to `CC1=NC2(CCN(c3nccn4nc(Nc5ccc6c(c5)NC(=O)C6(C)C)nc34)CC2)C(=O)N1` [E71, 8-[2-(3,3-dimethyl-2-oxo-2,3-dihydro-1H-indol-6-ylamino)-[1,2,4]triazolo[1,5-a]pyrazin-8-yl]-2-methyl-1,3,8-triaza-spiro[4.5]dec-1-en-4-one], for which the pIC50 is 6.52 to 7.00.
Under `CC1(C)C(=O)Nc2cc(Nc3nc4c(N5CCNC(=O)CC5)nccn4n3)ccc21` [E74, 3,3-dimethyl-6-[8-(5-oxo-[1,4]diazepan-1-yl)-[1,2,4]triazolo[1,5-a]pyrazin-2-ylamino]-1,3-dihydro-indol-2-one] stands above 7.00; under `CC1(C)CC(=O)Nc2cc(Nc3nc4c(N5CCC6(CC5)CNC(=O)O6)nccn4n3)ccc21` [E46, 4,4-dimethyl-7-[8-(2-oxo-1-oxa-3,8-diaza-spiro[4.5]dec-8-yl)-[1,2,4]triazolo[1,5-a]pyrazin-2-ylamino]-3,4-dihydro-1H-quinolin-2-one], above 7.00; under `CC1(C)C(=O)Nc2cc(Nc3nc4c(N5CCc6ccc(C(N)=O)cc6C5)nccn4n3)ccc21` [E128, 2-[2-(3,3-dimethyl-2-oxo-2,3-dihydro-1H-indol-6-ylamino)-[1,2,4]triazolo[1,5-a]pyrazin-8-yl]-1,2,3,4-tetrahydro-isoquinoline-7-carboxylic acid amide], above 7.00.
`CC1(C)NC(=O)Nc2cc(Nc3nc4c(N5CCC6(CC5)CNC(=O)O6)nccn4n3)ccc21` [E45, 4,4-dimethyl-7-[8-(2-oxo-1-oxa-3,8-diaza-spiro[4.5]dec-8-yl)-[1,2,4]triazolo[1,5-a]pyrazin-2-ylamino]-3,4-dihydro-1H-quinazolin-2-one] had a pIC50 above 7.00.
In the case of `CN1[C@@H]2CC[C@H]1C[C@@H](Nc1nccn3nc(Nc4ccc5c(c4)NC(=O)C5(C)C)nc13)C2` [E78, 3,3-dimethyl-6-[8-((1R,3R,5S)-8-methyl-8-aza-bicyclo[3.2.1]oct-3-ylamino)-[1,2,4]triazolo[1,5-a]pyrazin-2-ylamino]-1,3-dihydro-indol-2-one], the pIC50 is 6.52 to 7.00.
The compound `CC1(C)C(=O)Nc2cc(Nc3nc4c(-c5cccc(S(N)(=O)=O)c5)nccn4n3)ccc21` [C102, 3-[2-(3,3-dimethyl-2-oxo-2,3-dihydro-1H-indol-6-ylamino)-[1,2,4]triazolo[1,5-a]pyrazin-8-yl]-benzenesulfonamide] had a pIC50 above 7.00.
Consider `COc1ccccc1Nc1nc2c(-c3ccccc3-c3ccccc3)nccn2n1` [C24, (8-Biphenyl-2-yl-[1,2,4]triazolo[1,5-a]pyrazin-2-yl)-(2-methoxy-phenyl)-amine], for which the pIC50 was 4.30 to 5.52.
The compound `Cc1nn(C)c(C)c1-c1nccn2nc(Nc3ccc4c(c3)NC(=O)C4(C)C)nc12` [C68, 3,3-dimethyl-6-[8-(1,3,5-trimethyl-1H-pyrazol-4-yl)-[1,2,4]triazolo[1,5-a]pyrazin-2-ylamino]-1,3-dihydro-indol-2-one] had a pIC50 of 5.52 to 6.52.
Take `CC1(C)C(=O)Nc2cc(Nc3nc4c(-c5c[nH]c6ccccc56)nccn4n3)ccc21` [E76, 6-[8-(1H-indol-3-yl)-[1,2,4]triazolo[1,5-a]pyrazin-2-ylamino]-3,3-dimethyl-1,3-dihydro-indol-2-one]: the pIC50 is above 7.00.
Turning to `CC1(C)CN(c2nccn3nc(Nc4ccc5c(c4)NC(=O)C5(C)C)nc23)c2cc(Cl)ccc21` [E100, 6-[8-(6-chloro-3,3-dimethyl-2,3-dihydro-indol-1-yl)-[1,2,4]triazolo[1,5-a]pyrazin-2-ylamino]-3,3-dimethyl-1,3-dihydro-indol-2-one], the pIC50 is 5.52 to 6.52.
With `CC1(C)C(=O)Nc2cc(Nc3nc4c(N[C@@H]5CCCNC5)nccn4n3)ccc21` [C87, 3,3-dimethyl-6-[8-((R)-piperidin-3-ylamino)-[1,2,4]triazolo[1,5-a]pyrazin-2-ylamino]-1,3-dihydro-indol-2-one], the pIC50 is 6.52 to 7.00.
Compound `CC1(C)C(=O)Nc2cc(Nc3nc4c(N5CCc6nc(O)nc(O)c6C5)nccn4n3)ccc21` [E1, 6-[8-(2,4-dihydroxy-7,8-dihydro-5H-pyrido[4,3-d]pyrimidin-6-yl)-[1,2,4]triazolo[1,5-a]pyrazin-2-ylamino]-3,3-dimethyl-1,3-dihydro-indol-2-one] showed a pIC50 above 7.00.
Compound `CC1(C)C(=O)Nc2cc(Nc3nc4c(N5C[C@@H](CO)C[C@@H]5c5ccccc5)nccn4n3)ccc21` (single isomer, unassigned) [E97, 6-[8-((trans1)-4-hydroxymethyl-2-phenyl-pyrrolidin-1-yl)-[1,2,4]triazolo[1,5-a]pyrazin-2-ylamino]-3,3-dimethyl-1,3-dihydro-indol-2-one] gave a negative logarithm of the IC50 (pIC50) of 5.52 to 6.52.
Regarding `CC(=O)N(C)C1CCN(c2nccn3nc(Nc4ccc5c(c4)NC(=O)C5(C)C)nc23)C1` (stereo not drawn) [E11, N-{1-[2-(3,3-dimethyl-2-oxo-2,3-dihydro-1H-indol-6-ylamino)-[1,2,4]triazolo[1,5-a]pyrazin-8-yl]-pyrrolidin-3-yl}-N-methyl-acetamide], the pIC50 was 5.52 to 6.52.
`Cc1nc(C2CCN(c3nccn4nc(Nc5ccc6c(c5)NC(=O)C6(C)C)nc34)CC2)[nH]c1C` [E37, 6-{8-[4-(4,5-dimethyl-1H-imidazol-2-yl)-piperidin-1-yl]-[1,2,4]triazolo[1,5-a]pyrazin-2-ylamino}-3,3-dimethyl-1,3-dihydro-indol-2-one] gave a negative-log IC50 (pIC50) of 6.52 to 7.00.
Under `CC1(C)C(=O)Nc2cc(Nc3nc4c(N5CCC(c6ncc(C(F)(F)F)[nH]6)CC5)nccn4n3)ccc21` [E59] stands above 7.00; under `CC1(C)CC(=O)Nc2cc(Nc3nc4c(N5CCCC5c5ccccc5)nccn4n3)ccc21` (stereo not drawn) [E93, 4,4-dimethyl-7-[8-(2-phenyl-pyrrolidin-1-yl)-[1,2,4]triazolo[1,5-a]pyrazin-2-ylamino]-3,4-dihydro-1H-quinolin-2-one], 5.52 to 6.52; under `COc1cc(Nc2nc3c(N4CCCC(C(N)=O)C4)nccn3n2)cc(OC)c1` (stereo not drawn) [D2, 1-[2-(3,5-dimethoxy-phenylamino)-[1,2,4]triazolo[1,5-a]pyrazin-8-yl]-piperidine-3-carboxylic acid amide], 5.52 to 6.52.
The compound `CC1(C)CCCc2cc(Nc3nc4c(N5CCC6(CC5)CNC(=O)O6)nccn4n3)ccc21` [E54, 8-[2-(5,5-dimethyl-5,6,7,8-tetrahydro-naphthalen-2-ylamino)-[1,2,4]triazolo[1,5-a]pyrazin-8-yl]-1-oxa-3,8-diaza-spiro[4.5]decan-2-one] showed a negative-log IC50 (pIC50) above 7.00.
As to `Cn1cc(-c2nccn3nc(Nc4ccc5c(c4)NC(=O)NC5(C)C)nc23)cn1` [E26, 4,4-dimethyl-7-[8-(1-methyl-1H-pyrazol-4-yl)-[1,2,4]triazolo[1,5-a]pyrazin-2-ylamino]-3,4-dihydro-1H-quinazolin-2-one], the pIC50 was above 7.00.
Consider `COC1=CC2C=CN=C2C=C1Nc1nc2c(N3CCC4(CC3)CNC(=O)O4)nccn2n1` (stereo not drawn) [E61, 8-[2-(5-methoxy-3aH-indol-6-ylamino)-[1,2,4]triazolo[1,5-a]pyrazin-8-yl]-1-oxa-3,8-diaza-spiro[4.5]decan-2-one], for which the pIC50 was 4.30 to 5.52.
Under `C[S+]([O-])c1ccc(Nc2nc3c(-c4ccccc4-c4ccccc4)nccn3n2)cc1` (stereo not drawn) [C31, (8-Biphenyl-2-yl-[1,2,4]triazolo[1,5-a]pyrazin-2-yl)-(4-methanesulfinyl-phenyl)-amine] stands 4.30 to 5.52.
